Measured values published in ChEMBL document CHEMBL1909046, “DrugMatrix in vitro pharmacology data”.

What was measured:
[1] = molecular target: T1, Alpha-2C adrenergic receptor (Homo sapiens, UniProt P18825); test: DRUGMATRIX: Adrenergic Alpha-2C radioligand binding (ligand: [3H] MK-912); format: cell membranes, Sf9, Membrane; settings: sf9
T1 sequence (P18825 whole entry): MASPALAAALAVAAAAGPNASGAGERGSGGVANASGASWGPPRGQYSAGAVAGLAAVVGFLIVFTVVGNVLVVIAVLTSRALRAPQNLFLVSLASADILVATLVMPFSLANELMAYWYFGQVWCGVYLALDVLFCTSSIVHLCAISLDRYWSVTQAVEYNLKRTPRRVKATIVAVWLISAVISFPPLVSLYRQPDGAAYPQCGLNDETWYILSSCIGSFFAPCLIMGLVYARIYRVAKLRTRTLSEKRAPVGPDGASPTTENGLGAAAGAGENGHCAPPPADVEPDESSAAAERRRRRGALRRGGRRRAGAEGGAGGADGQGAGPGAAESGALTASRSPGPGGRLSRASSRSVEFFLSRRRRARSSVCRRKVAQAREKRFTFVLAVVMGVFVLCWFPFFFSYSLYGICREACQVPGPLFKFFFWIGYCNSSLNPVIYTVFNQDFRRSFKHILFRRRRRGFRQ

Calcitonin receptor = molecular target: T2, Calcitonin receptor (Homo sapiens, UniProt P30988); format: cell membranes, Membrane; settings: t47d; further: in other assays of this panel Not Active means under 50% inhibition at 10 µM
T2 sequence (P30988 whole entry): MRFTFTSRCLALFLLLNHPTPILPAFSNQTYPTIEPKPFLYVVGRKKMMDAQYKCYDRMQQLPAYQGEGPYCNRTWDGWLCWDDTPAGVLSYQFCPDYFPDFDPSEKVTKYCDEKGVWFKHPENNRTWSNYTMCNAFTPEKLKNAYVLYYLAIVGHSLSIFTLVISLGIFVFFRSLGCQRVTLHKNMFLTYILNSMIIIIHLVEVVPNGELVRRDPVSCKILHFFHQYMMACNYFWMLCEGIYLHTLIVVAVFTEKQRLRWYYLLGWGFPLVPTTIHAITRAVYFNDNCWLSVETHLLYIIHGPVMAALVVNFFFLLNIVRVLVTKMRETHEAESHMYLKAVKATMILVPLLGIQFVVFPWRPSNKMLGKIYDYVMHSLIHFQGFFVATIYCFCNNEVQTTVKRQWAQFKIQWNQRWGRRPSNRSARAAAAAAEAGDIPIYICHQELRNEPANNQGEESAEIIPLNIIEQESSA

Carbonic anhydrase 2 = Carbonic anhydrase 2 (Homo sapiens, UniProt P00918); test: DRUGMATRIX: Carbonic Anhydrase II enzyme inhibition (substrate: 4-Nitrophenyl acetate (4-NPA)); format: tissue-based, Erythrocyte; settings: erythrocyte; Not Active = under 50% inhibition at 10 µM
[2] = molecular target: T3, Cholecystokinin receptor type A (Homo sapiens, UniProt P32238); format: cell membranes, Membrane; settings: 1321-n1; further: in other assays of this panel Not Active means under 50% inhibition at 10 µM
T3 sequence (P32238 whole entry): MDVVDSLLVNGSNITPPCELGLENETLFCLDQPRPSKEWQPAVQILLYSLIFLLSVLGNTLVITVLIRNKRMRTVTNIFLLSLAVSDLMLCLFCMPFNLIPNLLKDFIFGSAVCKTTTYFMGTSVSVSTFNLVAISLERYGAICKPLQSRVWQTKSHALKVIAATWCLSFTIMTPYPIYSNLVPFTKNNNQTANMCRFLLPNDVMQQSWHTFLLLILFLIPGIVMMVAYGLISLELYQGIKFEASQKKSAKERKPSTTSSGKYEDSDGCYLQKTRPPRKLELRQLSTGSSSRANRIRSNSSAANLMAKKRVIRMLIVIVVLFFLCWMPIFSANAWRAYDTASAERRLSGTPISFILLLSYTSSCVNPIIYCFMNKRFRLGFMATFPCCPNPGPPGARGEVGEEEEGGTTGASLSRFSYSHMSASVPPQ

[3] = DRUGMATRIX: Imidazoline I2, Central radioligand binding (ligand: [3H] Idazoxan); format: cell membranes, Rattus norvegicus, Wistar, Cerebral cortex, Membrane; settings: Not Active = under 50% inhibition at 10 µM
Melanocortin receptor 3 = Melanocortin receptor 3 (Homo sapiens, UniProt P41968); format: cell membranes, Membrane; settings: hek293; further: in other assays of this panel Not Active means under 50% inhibition at 10 µM
Chain of Melanocortin receptor 3 (P41968 whole entry): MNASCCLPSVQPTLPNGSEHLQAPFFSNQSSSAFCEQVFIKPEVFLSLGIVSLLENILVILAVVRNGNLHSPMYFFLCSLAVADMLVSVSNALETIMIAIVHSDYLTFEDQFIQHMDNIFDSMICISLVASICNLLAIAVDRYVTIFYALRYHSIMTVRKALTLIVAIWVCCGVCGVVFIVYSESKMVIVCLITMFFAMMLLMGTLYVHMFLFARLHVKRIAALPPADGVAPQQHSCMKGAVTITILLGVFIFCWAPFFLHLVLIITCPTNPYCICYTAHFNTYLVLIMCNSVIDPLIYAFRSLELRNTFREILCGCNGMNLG

[4] = molecular target: T4, Neuropeptide Y receptor type 1 (Homo sapiens, UniProt P25929); format: cell membranes, Membrane; settings: sk-n-mc; further: in other assays of this panel Not Active means under 50% inhibition at 10 µM
T4 sequence (P25929 whole entry): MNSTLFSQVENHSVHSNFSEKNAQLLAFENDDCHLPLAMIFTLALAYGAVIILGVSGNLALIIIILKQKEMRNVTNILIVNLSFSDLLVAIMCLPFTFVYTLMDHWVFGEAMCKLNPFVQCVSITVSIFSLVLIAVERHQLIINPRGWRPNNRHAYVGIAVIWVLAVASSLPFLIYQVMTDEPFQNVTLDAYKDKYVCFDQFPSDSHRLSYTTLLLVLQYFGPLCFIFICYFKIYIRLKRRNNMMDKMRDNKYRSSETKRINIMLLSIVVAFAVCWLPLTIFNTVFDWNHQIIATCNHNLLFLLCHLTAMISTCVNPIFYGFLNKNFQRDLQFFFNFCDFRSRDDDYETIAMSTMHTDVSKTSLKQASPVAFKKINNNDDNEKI

Adenosine receptor A2a = Adenosine receptor A2a (Homo sapiens, UniProt P29274); test: DRUGMATRIX: Adenosine A2A radioligand binding (ligand: […]); format: cell membranes, HEK293, Membrane; settings: hek293; Not Active = under 50% inhibition at 10 µM
Chain of Adenosine receptor A2a (P29274 whole entry): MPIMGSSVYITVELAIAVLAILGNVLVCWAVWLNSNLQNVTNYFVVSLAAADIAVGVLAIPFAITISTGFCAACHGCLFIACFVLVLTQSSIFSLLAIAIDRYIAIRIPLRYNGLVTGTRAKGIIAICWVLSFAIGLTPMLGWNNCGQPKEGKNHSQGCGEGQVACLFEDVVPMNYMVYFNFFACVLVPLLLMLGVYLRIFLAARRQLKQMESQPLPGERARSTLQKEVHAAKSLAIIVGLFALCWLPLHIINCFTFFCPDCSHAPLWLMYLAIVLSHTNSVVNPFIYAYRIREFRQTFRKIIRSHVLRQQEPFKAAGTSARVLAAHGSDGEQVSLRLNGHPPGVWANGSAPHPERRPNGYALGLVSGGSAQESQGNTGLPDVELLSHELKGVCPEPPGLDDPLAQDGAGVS

COc1cc2c(c3oc(=O)c4c(c13)CCC4=O)[C@@H]1C=CO[C@@H]1O2 [AFLATOXIN]
Not Active: IC50 [1] | Ki [1] | IC50 (Calcitonin receptor) | Ki (Calcitonin receptor) | IC50 (Carbonic anhydrase 2) | Ki (Carbonic anhydrase 2) | IC50 [2] | Ki [2] | IC50 [3] | Ki [3] | IC50 (Melanocortin receptor 3) | Ki (Melanocortin receptor 3) | IC50 [4] | Ki [4] | IC50 (Adenosine receptor A2a) | Ki (Adenosine receptor A2a)

N=C(N)NC(=O)c1nc(Cl)c(N)nc1N [AMILORIDE]
Not Active: IC50 [1] | IC50 (Calcitonin receptor) | IC50 (Carbonic anhydrase 2) | IC50 [2] | IC50 [3] | Ki [3] | IC50 (Melanocortin receptor 3) | IC50 [4] | IC50 (Adenosine receptor A2a)

Cc1cc(=O)n(-c2ccccc2)n1C [ANTIPYRINE]
Not Active: IC50 [1] | IC50 (Calcitonin receptor) | IC50 (Carbonic anhydrase 2) | IC50 [2] | IC50 [3] | Ki [3] | IC50 (Melanocortin receptor 3) | IC50 [4] | IC50 (Adenosine receptor A2a)

CN1C(=O)COc2c(C(=O)NC3CN4CCC3CC4)cc(Cl)cc21 (configuration not stated) [AZASETRON]
Not Active: IC50 [1] | IC50 (Calcitonin receptor) | IC50 (Carbonic anhydrase 2) | IC50 [2] | IC50 [3] | Ki [3] | IC50 (Melanocortin receptor 3) | IC50 [4] | IC50 (Adenosine receptor A2a)

C[C@H]1C[C@H]2[C@@H]3CCC4=CC(=O)C=C[C@]4(C)[C@@]3(Cl)[C@@H](O)C[C@]2(C)[C@@]1(O)C(=O)CO [BECLOMETHASONE]
Not Active: IC50 [1] | IC50 (Calcitonin receptor) | IC50 (Carbonic anhydrase 2) | IC50 [2] | IC50 [3] | Ki [3] | IC50 (Melanocortin receptor 3) | IC50 [4] | IC50 (Adenosine receptor A2a)

CCOC(=O)[C@H](CCc1ccccc1)N[C@H]1CCc2ccccc2N(CC(=O)O)C1=O [BENAZEPRIL]
Not Active: IC50 [1] | IC50 (Calcitonin receptor) | IC50 (Carbonic anhydrase 2) | IC50 [2] | IC50 [3] | Ki [3] | IC50 (Melanocortin receptor 3) | IC50 [4] | IC50 (Adenosine receptor A2a)

Nc1c(CC(=O)O)cccc1C(=O)c1ccc(Br)cc1 [BROMFENAC]
Not Active: IC50 [1] | IC50 (Calcitonin receptor) | IC50 (Carbonic anhydrase 2) | IC50 [2] | IC50 [3] | Ki [3] | IC50 (Melanocortin receptor 3) | IC50 [4] | IC50 (Adenosine receptor A2a)

CCCCN1CCCCC1C(=O)Nc1c(C)cccc1C.Cl (configuration not stated) [BUPIVACAINE HYDROCHLORIDE]
Not Active: IC50 [1] | IC50 (Calcitonin receptor) | IC50 (Carbonic anhydrase 2) | IC50 [2] | IC50 [3] | Ki [3] | IC50 (Melanocortin receptor 3) | IC50 [4] | IC50 (Adenosine receptor A2a)

O=C1CC2(CCCC2)CC(=O)N1CCCCN1CCN(c2ncccn2)CC1 [BUSPIRONE]
Not Active: IC50 [1] | IC50 (Calcitonin receptor) | IC50 (Carbonic anhydrase 2) | IC50 [2] | IC50 [3] | Ki [3] | IC50 (Melanocortin receptor 3) | IC50 [4] | IC50 (Adenosine receptor A2a)

C[C@@]12C(=O)OC(=O)[C@]1(C)[C@H]1CC[C@@H]2O1 [CANTHARIDIN]
Not Active: IC50 [1] | IC50 (Calcitonin receptor) | IC50 (Carbonic anhydrase 2) | IC50 [2] | IC50 [3] | Ki [3] | IC50 (Melanocortin receptor 3) | IC50 [4] | IC50 (Adenosine receptor A2a)

O=NN(CCCl)C(=O)NCCCl [CARMUSTINE]
Not Active: IC50 [1] | IC50 (Calcitonin receptor) | IC50 (Carbonic anhydrase 2) | IC50 [2] | IC50 [3] | Ki [3] | IC50 (Melanocortin receptor 3) | IC50 [4] | IC50 (Adenosine receptor A2a)

CC1=C(C(=O)O)N2C(=O)[C@@H](NC(=O)[C@H](N)c3ccccc3)[C@H]2SC1 [CEPHALEXIN ANHYDROUS]
Not Active: IC50 [1] | IC50 (Calcitonin receptor) | IC50 (Carbonic anhydrase 2) | IC50 [2] | IC50 [3] | Ki [3] | IC50 (Melanocortin receptor 3) | IC50 [4] | IC50 (Adenosine receptor A2a)

O=C(N[C@H](CO)[C@H](O)c1ccc([N+](=O)[O-])cc1)C(Cl)Cl [CHLORAMPHENICOL]
Not Active: IC50 [1] | IC50 (Calcitonin receptor) | IC50 (Carbonic anhydrase 2) | IC50 [2] | IC50 [3] | Ki [3] | IC50 (Melanocortin receptor 3) | IC50 [4] | IC50 (Adenosine receptor A2a)

ClC(Cl)Cl [CHLOROFORM]
Not Active: IC50 [1] | IC50 (Calcitonin receptor) | IC50 (Carbonic anhydrase 2) | IC50 [2] | IC50 [3] | Ki [3] | IC50 (Melanocortin receptor 3) | IC50 [4] | IC50 (Adenosine receptor A2a)

C=C1CC[C@H](O)C/C1=C/C=C1\CCC[C@]2(C)[C@@H]([C@H](C)CCCC(C)C)CC[C@@H]12 [CHOLECALCIFEROL]
Not Active: IC50 [1] | IC50 (Calcitonin receptor) | IC50 (Carbonic anhydrase 2) | IC50 [2] | IC50 [3] | Ki [3] | IC50 (Melanocortin receptor 3) | IC50 [4] | IC50 (Adenosine receptor A2a)
